Measurements taken from PubChem BioAssay AID248 (DTP/NCI, 2004).
Where “and” joins values, the source holds several entries; their conditions need not be identical. Identical values can stand only once. Inconclusive results and toxic doses are left out.

System: L1210 leukemia ip in BDF1 mice, survival T/C
Assay: NCI In Vivo Anticancer Drug Screen. Data for tumor model L1210 Leukemia (intraperitoneal) in B6D2F1 (BDF1) mice
Conditions: endpoint: mean survival time, higher = longer survival
How it was run: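 In this screen, tumor-bearing mice given compound are compared to those given vehicle, and their survival values are reported as a treated-to-control quotient.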

[1] = dose: 100.0 mg/kg/injection, schedule: Q01DX001 (ip), vehicle: Klucel (hydroxypropylcellulose) (HPC)
[2] = dose: 100.0 mg/kg/injection, schedule: Q04DX003 (ip), vehicle: Klucel (hydroxypropylcellulose) (HPC)
[3] = dose: 200.0 mg/kg/injection, schedule: Q01DX001 (ip), vehicle: Klucel (hydroxypropylcellulose) (HPC)
[4] = dose: 200.0 mg/kg/injection, schedule: Q04DX003 (ip), vehicle: Klucel (hydroxypropylcellulose) (HPC)
[5] = dose: 25.0 mg/kg/injection, schedule: Q04DX002 (ip), vehicle: Klucel (hydroxypropylcellulose) (HPC)
[6] = dose: 100.0 mg/kg/injection, schedule: Q04DX002 (ip), vehicle: Klucel (hydroxypropylcellulose) (HPC)
[7] = dose: 200.0 mg/kg/injection, schedule: Q01DX001 (ip), vehicle: carboxymethylcellulose (CMC)
[8] = dose: 400.0 mg/kg/injection, schedule: Q01DX001 (ip), vehicle: carboxymethylcellulose (CMC)
[9] = dose: 100.0 mg/kg/injection, schedule: Q01DX009 (ip), vehicle: Klucel (hydroxypropylcellulose) (HPC)
[10] = dose: 200.0 mg/kg/injection, schedule: Q01DX009 (ip), vehicle: Klucel (hydroxypropylcellulose) (HPC)
[11] = dose: 400.0 mg/kg/injection, schedule: Q01DX009 (ip), vehicle: Klucel (hydroxypropylcellulose) (HPC)
[12] = dose: 400.0 mg/kg/injection, schedule: Q04DX003 (ip), vehicle: Klucel (hydroxypropylcellulose) (HPC)
[13] = dose: 100.0 mg/kg/injection, schedule: Q01DX001 (ip), vehicle: carboxymethylcellulose (CMC)
[14] = dose: 100.0 mg/kg/injection, schedule: Q01DX009 (ip), vehicle: saline with Tween-80
[15] = dose: 200.0 mg/kg/injection, schedule: Q01DX009 (ip), vehicle: saline with Tween-80
[16] = dose: 400.0 mg/kg/injection, schedule: Q01DX009 (ip), vehicle: saline with Tween-80
[17] = dose: 100.0 mg/kg/injection, schedule: Q01DX001 (ip), vehicle: saline
[18] = dose: 200.0 mg/kg/injection, schedule: Q01DX001 (ip), vehicle: saline
[19] = dose: 400.0 mg/kg/injection, schedule: Q01DX001 (ip), vehicle: saline

## CS(=O)Cc1cccc2ccccc12 (configuration not stated)
dose: 50.0 mg/kg/injection, schedule: Q04DX003 (ip), vehicle: Klucel (hydroxypropylcellulose) (HPC)
  T/C: 117 % of control
[1]
  T/C: 98 % of control
[2]
  T/C: 104 % of control
[3]
  T/C: 116 % of control
[4]
  T/C: 96 % of control

## O=C(Nc1ccc([N+](=O)[O-])cc1)Oc1c(Cl)cc(Cl)c(Cl)c1[N+](=O)[O-]
[5]
  T/C: 112 % of control
dose: 50.0 mg/kg/injection, schedule: Q04DX002 (ip), vehicle: Klucel (hydroxypropylcellulose) (HPC)
  T/C: 97 % of control
[6]
  T/C: 94 % of control and 90 % of control

## O=NN(CCCl)C(=O)Nc1ccc2ccccc2c1
[7]
  T/C: 161 % of control
dose: 300.0 mg/kg/injection, schedule: Q01DX001 (ip), vehicle: carboxymethylcellulose (CMC)
  T/C: 172 % of control
[8]
  T/C: 96 % of control

## Nc1cc(N)c(N)cc1N
dose: 9.38 mg/kg/injection, schedule: Q01DX001 (ip), vehicle: saline
  T/C: 95 % of control
dose: 18.75 mg/kg/injection, schedule: Q01DX001 (ip), vehicle: saline
  T/C: 101 % of control
dose: 37.5 mg/kg/injection, schedule: Q01DX001 (ip), vehicle: saline
  T/C: 111 % of control

## CCCN=C(C)c1ccccc1O
dose: 100.0 mg/kg/injection, schedule: Q04DX003 (ip), vehicle: acetone
  T/C: 97 % of control
dose: 200.0 mg/kg/injection, schedule: Q04DX003 (ip), vehicle: acetone
  T/C: 95 % of control

## N=C1c2ccccc2-c2nc3ccccc3c(=Nc3ccccc3C(=O)O)n21
dose: 100.0 mg/kg/injection, schedule: Q04DX002 (ip), vehicle: saline
  T/C: 89 % of control
dose: 200.0 mg/kg/injection, schedule: Q04DX002 (ip), vehicle: saline
  T/C: 86 % of control
dose: 400.0 mg/kg/injection, schedule: Q04DX002 (ip), vehicle: saline
  T/C: 89 % of control

## Clc1ccc(S/C=C/c2ccccc2)cc1
[1]
  T/C: 103 % of control
[9]
  T/C: 91 % of control
[2]
  T/C: 102 % of control
[3]
  T/C: 110 % of control
[10]
  T/C: 100 % of control
[4]
  T/C: 98 % of control
dose: 400.0 mg/kg/injection, schedule: Q01DX001 (ip), vehicle: Klucel (hydroxypropylcellulose) (HPC)
  T/C: 97 % of control
[11]
  T/C: 91 % of control
[12]
  T/C: 104 % of control

## C=C(C)CCCC(C)CC#N (configuration not stated)
[13]
  T/C: 117 % of control
[7]
  T/C: 100 % of control
[8]
  T/C: 96 % of control

## CCCCc1ccc(N=Cc2ccc(C=Nc3ccc(CCCC)cc3)cc2)cc1
[14]
  T/C: 92 % of control
[15]
  T/C: 97 % of control
[16]
  T/C: 94 % of control

## CC(=O)n1cc(C2CC(=O)OC3=C2C(=O)CCC3)c2ccccc21 (configuration not stated)
[14]
  T/C: 93 % of control
dose: 100.0 mg/kg/injection, schedule: Q04DX003 (ip), vehicle: saline with Tween-80
  T/C: 89 % of control
[15]
  T/C: 93 % of control
dose: 200.0 mg/kg/injection, schedule: Q04DX003 (ip), vehicle: saline with Tween-80
  T/C: 89 % of control
[16]
  T/C: 97 % of control
dose: 400.0 mg/kg/injection, schedule: Q04DX003 (ip), vehicle: saline with Tween-80
  T/C: 91 % of control

## O=C1CC(Cc2n[nH]c3c2CCCC3)CC(=O)N1
[13]
  T/C: 100 % of control
[7]
  T/C: 95 % of control
[8]
  T/C: 95 % of control

## CC/C(C#N)=C(\C)C1CC1
dose: 9.5 mg/kg/injection, schedule: Q01DX001 (ip), vehicle: other
  T/C: 96 % of control
dose: 19.0 mg/kg/injection, schedule: Q01DX001 (ip), vehicle: other
  T/C: 96 % of control
dose: 38.0 mg/kg/injection, schedule: Q01DX001 (ip), vehicle: other
  T/C: 104 % of control

## COC1OC(CI)C(O)C(O)C1O (configuration not stated)
[17]
  T/C: 109 % of control
[18]
  T/C: 109 % of control
[19]
  T/C: 120 % of control

## Cc1ccc(S(=O)(=O)/N=S(/C)c2ccccc2)cc1 (configuration not stated)
dose: 100.0 mg/kg/injection, schedule: Q01DX009 (ip), vehicle: saline sonified
  T/C: 95 % of control
dose: 100.0 mg/kg/injection, schedule: Q04DX003 (ip), vehicle: saline sonified
  T/C: 94 % of control
dose: 200.0 mg/kg/injection, schedule: Q01DX009 (ip), vehicle: saline sonified
  T/C: 108 % of control
dose: 200.0 mg/kg/injection, schedule: Q04DX003 (ip), vehicle: saline sonified
  T/C: 106 % of control
dose: 400.0 mg/kg/injection, schedule: Q01DX009 (ip), vehicle: saline sonified
  T/C: 97 % of control
dose: 400.0 mg/kg/injection, schedule: Q04DX003 (ip), vehicle: saline sonified
  T/C: 103 % of control

## CCNC(C)(C)C(SS(=O)(=O)O)c1cccs1 (configuration not stated)
dose: 100.0 mg/kg/injection, schedule: Q04DX003 (ip), vehicle: water
  T/C: 109 % of control
dose: 200.0 mg/kg/injection, schedule: Q04DX003 (ip), vehicle: water
  T/C: 96 % of control
dose: 400.0 mg/kg/injection, schedule: Q04DX003 (ip), vehicle: water
  T/C: 94 % of control

## CCCCOC(=O)NC/C(Br)=C/Br
[9]
  T/C: 96 % of control
[2]
  T/C: 100 % of control
[10]
  T/C: 94 % of control
[4]
  T/C: 96 % of control
[11]
  T/C: 91 % of control
[12]
  T/C: 105 % of control

## Cc1ncc(C#N)c(C)n1
[17]
  T/C: 107 % of control
[18]
  T/C: 102 % of control
[19]
  T/C: 107 % of control

## CCOC(=O)N1C2CC=CCC1C1(c3ccccc3)OC2(c2ccccc2)c2ccccc21
dose: 100.0 mg/kg/injection, schedule: Q04DX002 (ip), vehicle: DMSO
  T/C: 96 % of control

## C=C1C(=O)OC2C(=O)OC(CCCCCCCC)C12 (configuration not stated)
dose: 6.2 mg/kg/injection, schedule: Q04DX002 (ip), vehicle: Klucel (hydroxypropylcellulose) (HPC)
  T/C: 97 % of control
dose: 12.5 mg/kg/injection, schedule: Q04DX002 (ip), vehicle: Klucel (hydroxypropylcellulose) (HPC)
  T/C: 94 % of control
[5]
  T/C: 97 % of control and 104 % of control

## O=C1C(O)CCN1Cc1ccccc1 (configuration not stated)
dose: 50.0 mg/kg/injection, schedule: Q01DX001 (ip), vehicle: saline
  T/C: 108 % of control
[17]
  T/C: 104 % of control
[18]
  T/C: 104 % of control
[19]
  T/C: 102 % of control

## Cc1cc2c3ccccc3ncn2n1
[2]
  T/C: 101 % of control
[4]
  T/C: 103 % of control
[12]
  T/C: 109 % of control

## C=CCNC(=S)Nc1cccc(O)c1
[9]
  T/C: 95 % of control
[10]
  T/C: 104 % of control
[11]
  T/C: 107 % of control

## O=CNC(O)C(Cl)(Cl)Cl (configuration not stated)
dose: 100.0 mg/kg/injection, schedule: Q01DX009 (ip), vehicle: saline
  T/C: 98 % of control
dose: 100.0 mg/kg/injection, schedule: Q04DX003 (ip), vehicle: saline
  T/C: 109 % of control
dose: 200.0 mg/kg/injection, schedule: Q01DX009 (ip), vehicle: saline
  T/C: 89 % of control
dose: 200.0 mg/kg/injection, schedule: Q04DX003 (ip), vehicle: saline
  T/C: 95 % of control
dose: 400.0 mg/kg/injection, schedule: Q01DX009 (ip), vehicle: saline
  T/C: 89 % of control
dose: 400.0 mg/kg/injection, schedule: Q04DX003 (ip), vehicle: saline
  T/C: 95 % of control

## [CH3][Sn]([CH3])([CH3])[O][N+](=O)[O-]
dose: 0.18 mg/kg/injection, schedule: Q01DX009 (ip), vehicle: saline
  T/C: 94 % of control
dose: 0.37 mg/kg/injection, schedule: Q01DX009 (ip), vehicle: saline
  T/C: 100 % of control
dose: 0.75 mg/kg/injection, schedule: Q01DX009 (ip), vehicle: saline
  T/C: 103 % of control
dose: 1.5 mg/kg/injection, schedule: Q04DX003 (ip), vehicle: saline
  T/C: 108 % of control
dose: 3.0 mg/kg/injection, schedule: Q04DX003 (ip), vehicle: saline
  T/C: 103 % of control

## NC(CCl)=NCC12CC3CC(CC(C3)C1)C2
[6]
  T/C: 98 % of control
dose: 200.0 mg/kg/injection, schedule: Q04DX002 (ip), vehicle: Klucel (hydroxypropylcellulose) (HPC)
  T/C: 104 % of control and 87 % of control

## CCCNC(=O)Oc1ccccc1-c1ccccc1
dose: 100.0 mg/kg/injection, schedule: Q04DX002 (ip), vehicle: saline with Tween-80
  T/C: 92 % of control
dose: 200.0 mg/kg/injection, schedule: Q04DX002 (ip), vehicle: saline with Tween-80
  T/C: 103 % of control
dose: 400.0 mg/kg/injection, schedule: Q04DX002 (ip), vehicle: saline with Tween-80
  T/C: 110 % of control
